Laboratory results reported in patent US20030176316A1, “Methods for treatment of rheumatoid arthritis” (priority 2001, published 2003).
Counter-ions that a name gives are not always drawn. Like-named read-outs stand apart in the source and are kept apart here.

Columns and labels:
U937 cells = assay: apoptosis induction of U937 cells (active caspase 3, indirect immunofluorescence); type: cell-based; conditions: 24 hours
Protocol: U937 cells (from ATCC Rockville, Md.) were grown in RPMI media supplemented with 5% FCS, glutamine, antibiotic/antimycotic and sodium pyruvate. Total RNA was isolated from two U937 cultures, one treated with 5nM TPA for 48 hours and one grown in normal media as listed above, using the Rouche High Pure RNA Isolation Kit (cat# 1 828 665) as per manufacturers protocol. cDNA was then synthesized from the total RNA using GibcoBRL Superscriptll (Cat# 18064-022) reverse transcriptase as per manufacturers protocol. The resulting cDNA was used as a template for RT-PCR reactions using primer sets specific for PDE2 (forward: […], reverse: […]) or PDE5 (forward: […], reverse: […]). mRNA for PDE2 and 5 were both present in the untreated U937 cells. Upon treatment with TPA, the relative amounts of PDE2 mRNA increased 5 fold. Therefore, U937 cells treated with TPA and driven to differentiate into an activated macrophage like state have elevated levels of PDE2 mRNA (see FIG. 1).
The presence of PDE2 and PDE5 protein within U937 cells was confirmed by indirect immunofluorescence (IIF). U937 cells were cultured as above. Two U937 cultures, one grown in the presence of 5 nM TPA for 48 hours and one grown in normal media were processed. All cultures were collected by centrifugation (Shandon Cytospin, 2 minutes @ 600 rpm) onto poly-L lysine-coated slides and immediately fixed in fresh 3% paraformaldehyde buffered in PBS for 10 minutes. Adherent cultures were grown on coverslips and fixed as above. Cells were permeablized in 0.2% triton-100 for 2 minutes. Slides were blocked with blocking buffer (5% goat serum, 5% glycerol, 1% gelatin from cold water fish skin and 0.04% NaN3 in PBS) for 1 hour at room temperature.
Slides were then incubated for 1 hour at 37° C. in a humid chamber with antibodies specific for PDE2 (generated in a sheep against the peptide […]) or PDE5 (generated in sheep against the peptide […]). […]
The level of apoptosis in U937 cells was quantified by scoring 500 consecutive cells for the presence of active caspase 3. […]

[1] = seven-day dose-range finding study in rats; type: in vivo; conditions: seven days, 2000 mg/kg/day
[2] = long-term safety assessment study in rats, 91 days; type: in vivo
Description: These changes were not associated with any gross clinical abnormality.

[3] = molecular target: T1, GST-cGB-PDE5 fusion protein (cGMP binding sites of human PDE5A) (Homo sapiens, UniProt O76074); assay: cGMP binding assay with GST-cGB-PDE5 fusion protein
T1 construct: made in house; host or cells: E. coli BL21 (DE3)
Description: RT-PCR method is used to obtain the cGB domain of PDE5 with forward and reverse primers designed from bovine PDE5A cDNA sequence (McAllister-Lucas L. M. et al., J Biol. Chem. 268, 22863-22873, 1993) and the selection among PDE 1-10 families. 5′-3′, Inc. kits for total RNA followed by oligo (dT) column purification of mRNA are used with HT-29 cells. […] It is then cloned into pGEX-5×-3 glutathione-S-transferase (GST) fusion vector (Pharmacia Biotech )with tac promoter, and EcoRI and XhoI cut sites. The fusion vector is then transfected into E. Coli BL21 (DE3) bacteria (Invitrogen). The transfected BL21 bacteria is grown to log phase, and then IPTG is added as an induce. The induction is carried at 20° C. for 24 hrs. The bacteria are harvested and lysed. The soluble cell lysate is incubated with GSH conjugated Sepharose 4B (GSH-Sepharose 4B). The GST-cGB-PDE5 fusion protein can bind to the GSH-Sepharose beads, and the other proteins are washed off from beads with excessive cold PBS.
Then, the mixture is transferred to Brandel MB-24 cell harvester with GF/B as the filter membrane followed by 2 washes with 10 mL of cold 5 mM potassium buffer(pH 6.8). The membranes are then cut out and transferred to scintillation, vials followed by the addition of 1 mL of H2O and 6 mL of Ready Safe™ liquid scintillation cocktail to each vial. The vials are counted on a Beckman LS 6500 scintillation counter.
The quenching by filter membrane or other debris are also calibrated.

28-day study in rats = type: in vivo; conditions: 28 days, 50 and 500 mg/kg/day
Protocol: A 28-day study in rats was also carried out at 0, 50, 500 and 2000 mg/kg/day.

PDE 5 = PDE 5 (Homo sapiens, UniProt O76074); assay: competitive (with cGMP) binding to PDE5
[4] = 91-day oral study in dogs; type: in vivo; conditions: 91 days, highest dose group

CC1=C(CC(=O)NCc2ccccc2)c2cc(F)ccc2/C1=C\c1ccncc1 [Example 38, (Z)-5-Fluoro-2-Methyl-(4-Pyridylidene)-3-(N-Benzyl) Indenylacetamide Hydrochloride]
apoptosis, fluorescent image of active caspase 3 (FIG. 8) (U937 cells; 1 μM): undergoing apoptosis as reflected by the presence of active caspase 3
effects [1]: labored breathing and/or abnormal respiratory sounds, decreased weights gains and food consumption ion male rats, and increased liver weights in female rats
clinical biochemistry and hematology [2]: no changes in clinical biochemistry and hematology were evident
competition with cGMP in binding to the cGMP binding sites of GST-cGB-PDE5 ([3]; 3H-cGMP 2 μM, 22° C., 1 hour): does not bind to the cGMP-binding site of PDE5
liver and thyroid weight increases at the lower doses (28-day study in rats): not statistically significant
competitive (with cGMP) binding to PDE 5 (PDE 5): does competitively (with cGMP) bind to PDE 5
microscopic alterations of the liver [4]: no microscopic alterations

CCCc1nn(C)c2c(=O)[nH]c(-c3cc(S(=O)(=O)N4CCN(C)CC4)ccc3OCC)nc12 [sildenafil]
levels of apoptosis (active caspase 3) (U937 cells; 0.3 nM): No increase in the levels of apoptosis compared to normal background

Nc1ccn([C@@H]2O[C@@H]3COP(=O)(O)O[C@H]3[C@H]2O)c(=O)n1 [cCMP, cyclic CMP]
competition with cGMP in binding to the cGMP binding sites of GST-cGB-PDE5 ([3]; 3H-cGMP 2 μM, 22° C., 1 hour): did not compete with cGMP in binding

COc1ccc(C2CNC(=O)C2)cc1OC1CCCC1 (centres unmarked) [rolipram]
levels of apoptosis (active caspase 3) (U937 cells; 0.5 μM): No increase in the levels of apoptosis compared to normal background

O=c1ccn([C@@H]2O[C@@H]3COP(=O)(O)O[C@H]3[C@H]2O)c(=O)[nH]1 [cUMP, cyclic UMP]
competition with cGMP in binding to the cGMP binding sites of GST-cGB-PDE5 ([3]; 3H-cGMP 2 μM, 22° C., 1 hour): did not compete with cGMP in binding

Nc1ncnc2c1ncn2[C@@H]1O[C@@H]2COP(=O)(O)O[C@H]2[C@H]1O [Cyclic AMP]
competition with cGMP in binding to the cGMP binding sites of GST-cGB-PDE5 [3]: did not compete with cGMP in binding

CCCCOC1C2OP(=O)(O)OCC2OC1n1cnc2c(=O)[nH]c(N)nc21 (centres unmarked) [2′-O-butyl-cGMP]
competition with cGMP in binding to the cGMP binding sites of GST-cGB-PDE5 ([3]; 3H-cGMP 2 μM, 22° C., 1 hour): did not compete with cGMP in binding

CCCCOC1C2OP(=O)(O)OCC2OC1n1cnc2c(N)ncnc21 (centres unmarked) [2′-O-butyl-cAMP]
competition with cGMP in binding to the cGMP binding sites of GST-cGB-PDE5 ([3]; 3H-cGMP 2 μM, 22° C., 1 hour): did not compete with cGMP in binding
